One assay deals with bovine thrombin (Bos taurus, UniProt P00735). Description: Chromogenic assay, inhibition of thrombin. It is filed as biochemical. The protocol:
(§1) The inhibition of thrombin, trypsin, plasmin or factor Xa is measured in 96 well plate chromogenic assays. The percentage inhibition and IC50 are calculated from triplicate samples of an 8 concentration dose-response curve. From the substrate Km and IC50, the Ki for each inhibitor is calculated. All assays are carried out in a total incubation of 200 μl of 50 mM HEPES and 150 mM NaCl at pH 8.0, and all compound dilutions are preincubated with enzyme at room temperature for 15 minutes prior to addition of substrate. After 30 minutes incubation at 30° C., the O.D. is measured at […] in a 96 well plate reader. Thrombin activity is measured using bovine thrombin and S2238 (H-D-Phe-Pip-Arg-pNA), bovine pancreatic trypsin is assayed with S2222 (Benz-Isoleu-Glu-Gly-Arg-pNA), bovine plasma plasmin is assayed with Chromozym PL (Tosyl-Giy-Pro-Lys-pNA)and bovine factor Xa is assayed in 50 mM Tris, 150 mM NaCl, pH 7.5 buffer with S2222.

In assay [1] the target is T1, bovine pancreatic trypsin (Bos taurus, UniProt P00760).
T1 construct: from tissue; host or cells: bovine pancreas
T1 sequence (P00760 24-246): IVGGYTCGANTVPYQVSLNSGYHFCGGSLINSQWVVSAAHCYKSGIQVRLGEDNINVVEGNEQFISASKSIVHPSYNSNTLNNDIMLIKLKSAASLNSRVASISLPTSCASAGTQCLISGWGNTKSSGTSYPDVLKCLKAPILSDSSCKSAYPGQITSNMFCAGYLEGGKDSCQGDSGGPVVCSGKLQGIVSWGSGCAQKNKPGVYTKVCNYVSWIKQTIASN
Description: Chromogenic assay, inhibition of trypsin. It is filed as biochemical. The conditions noted are these: in vitro, substrate S2222, pH 8.0, 30° C. The protocol:
as §1
The following Table illustrates the in vitro inhibitory activities against thrombin and trypsin for a range of the compounds of the invention.

Structures are written as SMILES. Counter-ions that a name gives are not always drawn.

In the case of `N=C(N)N1CCC(OCCC2CCCCN2C(=O)[C@H](CC(=O)O)NC2CCCCC2O)CC1` (mixture of isomers) [Example 17, N-[N-(2-Hydroxycyclohexyl)-(S)-α-aspartyl]-2(R,S)-[2-(N-amidino-4-Piperidyloxy)ethyl]piperidine bis-trifluoroacetate], the Ki (as a rule, the equilibrium dissociation constant of an inhibitor or competing ligand from its target) on bovine thrombin was 35 nM; in assay [1], 11000 nM. On the same counts, the results for `CN(C1CCCC(C)(C)C1)[C@@H](CC(=O)O)C(=O)N1CCCC[C@H]1CCOC1CCN(C(=N)N)CC1` (stereo partly drawn) [Example 25, N-[N-Methyl-N-(3,3-dimethylcyclohexyl)-(S)-α-aspartyl]-2(S)-[2-(N-amidino-4-piperidyloxy)ethyl]piperidine dihydrochloride] are 2 nM and 360 nM. Take `N=C(N)N1CCC(OCC[C@@H]2CCCCN2C(=O)[C@H](CC(=O)O)NC2CC3CCC2C3)CC1` (stereo partly drawn) [Example 3, N-[N-(2-Norbornyl)-(S)α-aspartyl]-2(S)-[2-(N-amidino-4-piperidyloxy)ethyl]piperidine dihydrochloride]: the inhibitory constant (Ki) on bovine thrombin came to 4.1 nM; in assay [1], 1200 nM. The compound `N=C(N)N1CCC(OCCC2CCCCN2C(=O)[C@H](CC(=O)O)NC2CCCCCCC2)CC1` (mixture of isomers) [Example 16, N-(N-Cyclooctyl-(S)-α-aspartyl)-2(R,S)-[2-(N-amidino-4-piperidyloxy)ethyl]piperidine dihydrochloride] displayed a Ki in assay [1] of 720 nM. As to `CCN(C1CCCCC1)[C@@H](CC(=O)O)C(=O)N1CCCCC1CCOC1CCN(C(=N)N)CC1` (mixture of isomers) [Example 29, N-(N-Cyclohexyl-N-ethyl-(S)-α-aspartyl)-2(R,S)-[2-(N-amidino-4-piperidyloxy)ethyl]piperidine dihydrochloride], the Ki at bovine thrombin is 16 nM; in assay [1], 5000 nM. On the same counts, the results for `N=C(N)c1ccc(OCCC2CCCCN2C(=O)[C@H](CC(=O)O)NC2CCCCC2)cc1` (mixture of isomers) [Example 31, N-(N-Cyclohexyl-(S)-α-aspartyl)-2(R,S)-[2-(4-amidinophenoxy)ethyl]piperidine dihydrochloride] are 45 nM and 1300 nM.

These data come from US5917034A, “Antithrombotic n-amidinopiperidine and benzamidine derivatives” (Pfizer Inc., priority 1995, dated 1999).
